Results as given in patent US5795561A, “Radioiodinated phospholipid ether analogues” (The Board of Regents of the University of Michigan, priority 1994, dated 1998).
Where two headings read alike, the source gives them in different places. One block for each compound: values may come before it.

What was measured:
Walker 256 sarcoma [1] = assay: Tissue distribution of radioactivity after IV administration in rats bearing Walker 256 sarcoma (Tables 1-4); assay type: in vivo, female Sprague Dawley rats
Method: (§1) Radiolabelled compounds 1-[12-(m-iodophenyl)-dodecyl]-2-methyl-rac-glycero-3-phosphocholine (ET-12IP-OMe; Example 2, compound 18) and 1-[12-(m-iodophenyl)-dodecyl]-propanediol-3-phosphocholine (ET-12IP-OH; Example 3, compound 24) were prepared and administered to two sets of female Sprague Dawley rats: normal rats (control) and rats bearing tumors resulting from Walker 256 sarcoma cells which had been implanted into the thigh. The labelled compounds (5-35 μCi ^125 I) were administered intravenously in a 2% Tween 20-saline vehicle. At various times following administration the animals were sacrificed, and selected tissue samples were removed. The tissue samples were weighed and placed in cellulose acetate capsules. The radioactivity was then counted (85% efficiency) using a well scintillation counter (Searle 1185).

[2] = as above; assay type: in vivo, female Sprague Dawley rats; conditions: rat, 125I-labelled; for tissue uptake at 6 h: 6 hours after IV; for tissue uptake at 24 h: 24 hours after IV
Method: as §1

Walker 256 sarcoma [3] = conditions: rat, in vivo
Description: (§2) Both types of lesions were located in the thigh of the rat. Tumor bearing lesions were produced by implantation of Walker 256 sarcoma cells and inflammatory granuloma lesions were developed using carrageenan irritation in accordance with the method described by Atkinson, et al., Agents and Actions, Vol. 8, pages 263-267, 1978.

[4] = tested on: inflammatory granuloma lesions; conditions: rat, in vivo
Description: as §2

[5] = Tissue distribution of radioactivity after IV administration in normal (control) rats (Tables 1-4); assay type: in vivo, female Sprague Dawley rats; conditions: rat, 125I-labelled; for tissue uptake at 6 h: 6 hours after IV, N = 3, mean ± standard error; for tissue uptake at 24 h: 24 hours after IV
Method: as §1

[6] = Tissue distribution 24 hours after I.V. administration to rats bearing the Walker-256 carcinosarcoma (Tables 5 and 6); assay type: in vivo, Sprague-Dawley rats; conditions: rat, iv, tumor-bearing rats
Method: Tissue distribution studies were conducted with the alkyl lysophospholipid analogues of general Formula II.

[7] = tested on: human HTB 77 ovarian adenocarcinoma, NCI 69 human small cell carcinoma, and human HTB 63 melanoma; assay: In vivo tumor localization and scintigraphy in athymic nude mice with subcutaneous human tumors (Example 8)
tumor = conditions: background; cited from earlier work
Walker 256 sarcoma [8] = assay: Gamma-camera scintigraphy in tumor-bearing rats
Description: as §2

[9] = tested on: inflammatory granuloma lesions; assay: Gamma-camera scintigraphy in rats bearing inflammatory lesions (granuloma)
Description: as §2

Walker 256 sarcomas = assay: In vivo tumor localization in rats with intramuscular Walker 256 sarcomas (Example 8); parameters: species or system Sprague-Dawley rats; conditions: intravenous injection
Method: 12-(m-Iodophenyl)dodecyl phosphocholine (compound 50) was administered by intravenous injection to Sprague-Dawley rats with intramuscular Walker 256 sarcomas and athymic nude mice with subcutaneous human tumors, specifically, human HTB 77 ovarian adenocarcinoma, NCI 69 human small cell carcinoma, and human HTB 63 melanoma.

human tumor models = assay: Tissue distribution in athymic mice human tumor models (FIG. 17); assay type: in vivo, athymic nude mice; conditions: 13 days post-administration, % dose/gram of tissue plotted (FIG. 17)
Method: FIG. 17 is a bar graph showing tissue distribution in the blood, liver, and specified tumor tissue of radioiodinated 12-(m-iodophenyl)-dodecyl phosphocholine in nude mice 13 days post-administration; and
Tumor:blood levels greater than 25:1 were recorded in all athymic mice human tumor models.
FIG. 17 is a bar graph showing the tissue distribution in the blood, liver, and specified tumor tissue of compound 50 in nude mice 13 days post-administration. The data is expressed in terms of % dose/gram of tissue.

[10] = tested on: HTB 63 human melanoma tumors; assay: Tissue distribution in nude mice bearing HTB 63 human melanoma tumors (FIG. 18); assay type: in vivo; conditions: 13 days post-injection (FIG. 18)
Description: FIG. 18 is a bar graph showing tissue distribution of radioiodinated 12-(m-iodophenyl)-dodecyl phosphocholine in nude mice bearing HTB 63 human melanoma tumors at 13 days post-injection.
FIG. 18 is a bar graph which vividly illustrates the relative difference in tissue concentration of compound 50 in nude mice bearing HTB 63 human melanoma tumors at 13 days post-injection. The tissue concentration in the tumor tissue is remarkable.

[11] = blood, tumor-bearing rats, N = 3, mean ± standard error, read-out: Radioactivity in blood
[12] = kidney, tumor-bearing rats, N = 3, mean ± standard error, read-out: Radioactivity in kidney
[13] = liver, tumor-bearing rats, N = 3, mean ± standard error, read-out: Radioactivity in liver
[14] = lung, tumor-bearing rats, N = 3, mean ± standard error, read-out: Radioactivity in lung
[15] = muscle, tumor-bearing rats, N = 3, mean ± standard error, read-out: Radioactivity in muscle
[16] = walker 256 tumor, Walker 256 sarcoma implanted in thigh, N = 3, mean ± standard error, read-out: Radioactivity in tumor
[17] = blood, read-out: Radioactivity in blood
[18] = kidney, read-out: Radioactivity in kidney
[19] = liver, read-out: Radioactivity in liver
[20] = lung, read-out: Radioactivity in lung
[21] = muscle, read-out: Radioactivity in muscle
[22] = adrenal, read-out: Distribution of radioactivity: adrenal
[23] = blood, read-out: Distribution of radioactivity: blood
[24] = read-out: Distribution of radioactivity: tumor
[25] = kidney, read-out: Distribution of radioactivity: kidney
[26] = liver, read-out: Distribution of radioactivity: liver
[27] = lung, read-out: Distribution of radioactivity: lung
[28] = muscle, read-out: Distribution of radioactivity: muscle
[29] = thyroid, read-out: Distribution of radioactivity: thyroid
[30] = whole body scans 24 hours after administration

tissue uptake at 6 h [2, 11]: 0.239 ± 0.024 %ID/g
tissue uptake at 24 h ([2]; blood, tumor-bearing rats, N = 3, mean ± standard error (Table 4), read-out: Radioactivity in blood): 0.036 ± 0.004 %ID/g
tissue uptake at 6 h [2, 12]: 1.77 ± 0.108 %ID/g
tissue uptake at 24 h ([2]; kidney, tumor-bearing rats, N = 3, mean ± standard error (Table 4), read-out: Radioactivity in kidney): 0.235 ± 0.018 %ID/g
tissue uptake at 6 h [2, 13]: 0.892 ± 0.083 %ID/g
tissue uptake at 24 h ([2]; liver, tumor-bearing rats, N = 3, mean ± standard error (Table 4), read-out: Radioactivity in liver): 0.139 ± 0.01 %ID/g
tissue uptake at 6 h [2, 14]: 0.525 %ID/g
tissue uptake at 24 h ([2]; lung, tumor-bearing rats, N = 3, mean ± standard error (Table 4), read-out: Radioactivity in lung): 0.105 %ID/g
tissue uptake at 6 h [2, 15]: 0.05 ± 0.009 %ID/g
tissue uptake at 24 h ([2]; muscle, tumor-bearing rats, N = 3, mean ± standard error (Table 4), read-out: Radioactivity in muscle): 0.014 ± 0.001 %ID/g
tissue uptake at 6 h [2, 16]: 1.03 ± 0.158 %ID/g
tissue uptake at 24 h ([2]; walker 256 tumor, Walker 256 sarcoma implanted in thigh, N = 3, mean ± standard error (Table 4), read-out: Radioactivity in tumor): 0.463 ± 0.063 %ID/g
tissue uptake at 6 h [5, 17]: 0.475 ± 0.078 %ID/g
tissue uptake at 24 h ([5]; blood, N = 3, mean ± standard error (Table 4), read-out: Radioactivity in blood): 0.047 ± 0.035 %ID/g
tissue uptake at 6 h [5, 18]: 2.6 ± 0.107 %ID/g
tissue uptake at 24 h ([5]; kidney, N = 3, mean ± standard error (Table 4), read-out: Radioactivity in kidney): 0.257 ± 0.01 %ID/g
tissue uptake at 6 h [5, 19]: 1.35 ± 0.047 %ID/g
tissue uptake at 24 h ([5]; liver, N = 3, mean ± standard error (Table 4), read-out: Radioactivity in liver): 0.142 ± 0.033 %ID/g
tissue uptake at 6 h [5, 20]: 0.816 ± 0.031 %ID/g
tissue uptake at 24 h ([5]; lung, N = 3, mean ± standard error (Table 4), read-out: Radioactivity in lung): 0.129 ± 0.013 %ID/g
tissue uptake at 6 h [5, 21]: 0.083 ± 0.009 %ID/g
tissue uptake at 24 h ([5]; muscle, N = 3, mean ± standard error (Table 4), read-out: Radioactivity in muscle): 0.025 ± 0.001 %ID/g
Compound: C[N+](C)(C)CCOP(=O)([O-])OCCCOCCCCCCCCCCCCc1cccc([125I])c1 [ET-12IP-H, 1-[12-(m-iodophenyl)-dodecyl]-propanediol-3-phosphocholine]
tissue uptake at 24 h [6, 22]: 0.274 %ID/g
tissue uptake at 24 h [6, 23]: 0.036 %ID/g
tissue uptake at 24 h [6, 24]: 0.463 %ID/g
tissue uptake at 24 h [6, 25]: 0.235 %ID/g
tissue uptake at 24 h [6, 26]: 0.139 %ID/g
tissue uptake at 24 h [6, 27]: 0.105 %ID/g
tissue uptake at 24 h [6, 28]: 0.014 %ID/g
tissue uptake at 24 h [6, 29]: 8.45 %ID/g

localization in tumor tissues ([7]; similar studies to those with compound 50 (rat and athymic mouse models)): exhibited localization in tumor tissues
Compound: CCCCCCCCCCCCCCCCOP(=O)([O-])OCC[N+](C)(C)Cc1cccc(I)c1 [Compound 60, hexadecyl-2-[N,N-dimethyl-N-(m-iodobenzyl)-ammonium] ethylphosphate]

tumor localization (Walker 256 sarcomas): excellent tumor localization
tumor localization ([7]; intravenous injection): excellent tumor localization
tissue concentration in the tumor tissue [10]: remarkable
Compound: C[N+](C)(C)CCOP(=O)([O-])OCCCCCCCCCCCCc1cccc(I)c1 [compound 50, 12-(m-iodophenyl)-dodecyl phosphocholine]
tissue distribution in blood, liver and specified tumor tissue (human tumor models): the tumor contained the largest amount of radioactivity
clearance of background activity ([7]; beyond five days post-injection): all background activity had cleared from the liver and gastrointestinal tract

The next lines start with the compound.

Compound: COC(COCCCCCCCCCCCCc1cccc([125I])c1)COP(=O)([O-])OCC[N+](C)(C)C (racemic) [ET-12IP-OMe, 1-[12-(m-iodophenyl)-dodecyl]-2-methyl-rac-glycero-3-phosphocholine]
clearance of radioactivity from tissues (Walker 256 sarcoma [1]; by 24 hours): radioactivity had cleared significantly from all of the tissues except for tumor tissue
tissues with the highest concentrations of radioactivity (Walker 256 sarcoma [1]; six hours following administration): liver, kidney, and tumor tissues exhibiting the highest concentrations
tissue uptake at 6 h [2, 11]: 0.231 ± 0.008 %ID/g
tissue uptake at 24 h [2, 11]: 0.096 ± 0.023 %ID/g
tissue uptake at 6 h [2, 12]: 1.31 ± 0.091 %ID/g
tissue uptake at 24 h [2, 12]: 0.463 ± 0.111 %ID/g
tissue uptake at 6 h [2, 13]: 3.59 ± 0.189 %ID/g
tissue uptake at 24 h [2, 13]: 0.743 ± 0.105 %ID/g
tissue uptake at 6 h [2, 14]: 0.873 ± 0.081 %ID/g
tissue uptake at 24 h [2, 14]: 0.299 ± 0.017 %ID/g
tissue uptake at 6 h [2, 15]: 0.046 ± 0.001 %ID/g
tissue uptake at 24 h [2, 15]: 0.027 ± 0.006 %ID/g
tissue uptake at 6 h [2, 16]: 1.12 ± 0.024 %ID/g
tissue uptake at 24 h [2, 16]: 1.11 ± 0.016 %ID/g
localization in tumor (Walker 256 sarcoma [3]): capable of localizing in the tumor
localization in the inflammatory lesion [4]: little activity was associated with this area
tissue uptake at 6 h [5, 17]: 0.105 ± 0.009 %ID/g
tissue uptake at 24 h ([5]; blood, N = 4, mean ± standard error, read-out: Radioactivity in blood): 0.085 ± 0.001 %ID/g
tissue uptake at 6 h [5, 18]: 0.65 ± 0.114 %ID/g
tissue uptake at 24 h ([5]; kidney, N = 4, mean ± standard error, read-out: Radioactivity in kidney): 0.426 ± 0.03 %ID/g
tissue uptake at 6 h [5, 19]: 1.74 ± 0.125 %ID/g
tissue uptake at 24 h ([5]; liver, N = 4, mean ± standard error, read-out: Radioactivity in liver): 0.675 ± 0.02 %ID/g
tissue uptake at 6 h [5, 20]: 0.356 ± 0.012 %ID/g
tissue uptake at 24 h ([5]; lung, N = 4, mean ± standard error, read-out: Radioactivity in lung): 0.218 ± 0.01 %ID/g
tissue uptake at 6 h [5, 21]: 0.023 %ID/g
tissue uptake at 24 h ([5]; muscle, N = 4, mean ± standard error, read-out: Radioactivity in muscle): 0.034 ± 0.004 %ID/g
tissue uptake at 24 h [6, 22]: 0.436 %ID/g
tissue uptake at 24 h [6, 23]: 0.096 %ID/g
tissue uptake at 24 h [6, 24]: 1.11 %ID/g
tissue uptake at 24 h [6, 25]: 0.463 %ID/g
tissue uptake at 24 h [6, 26]: 0.743 %ID/g
tissue uptake at 24 h [6, 27]: 0.299 %ID/g
tissue uptake at 24 h [6, 28]: 0.027 %ID/g
tissue uptake at 24 h [6, 29]: 7.34 %ID/g

Compound: O=C([O-])CC(O)(CC(=O)[O-])C(=O)[O-].[67Ga+3] [gallium-67 citrate]
accumulation in inflammatory lesions (tumor): also accumulates in a variety of other inflammatory lesions
alteration of distribution by steroidal and antineoplastic drugs (tumor): can be altered by a variety of steroidal and antineoplastic drugs
localization in tumor (tumor): will localize, or accumulate, in a tumor
accumulation in tumor (scintigraphic scan) (Walker 256 sarcoma [8]; 24 hours after administration): high accumulation
accumulation in liver (scintigraphic scan) (Walker 256 sarcoma [8]; tumor-bearing rat, 24 hours after administration): low accumulation
localization in tumor (Walker 256 sarcoma [8]; [30]): capable of localizing in the tumor
accumulation in granuloma (inflammatory lesion), scintigraphic scan ([9]; 24 hours after administration, for ET-12IP-OMe in relation to liver): high accumulation
accumulation in liver (scintigraphic scan) ([9]; granuloma-bearing rat, 24 hours after administration): high accumulation
localization in the inflammatory lesion [9, 30]: found to localize in the inflammatory lesion
